Three compounds from publication doi:10.1101/2021.03.27.437323v2 (biorxiv, 2021) can be followed below.

The test has as its target SARS-CoV-2 main protease (M^pro; NSP5; 3CL M^pro) (Severe acute respiratory syndrome coronavirus 2, UniProt P0DTD1). Kind of test: biochemical. Conditions: read-out: % Residual activity at 20 µM.

For `Cc1ccccc1CC(=O)NC(Cc1ccccc1)c1nc2ccccc2[nH]1` (stereo not drawn) [MCULE-2322094178], the remaining activity at 20 µM is 83%.

Take `COc1ccc(-c2[nH]ncc2CNCc2ccccc2C)cc1` [MCULE-5715268546]: the remaining activity at 20 µM came to 83%.

Turning to `O=C(NC(Cc1ccccc1)c1nc2ccccc2[nH]1)c1cccc(F)c1` (stereo not drawn) [MCULE-6499664919], the remaining activity at 20 µM turned out to be 83%.
